Data as given in US9193729B2, “Inhibiting transient receptor potential ion channel TRPA1” (Cubist Pharmaceuticals, Inc., priority 2011, dated 2015).

Key:
rTRPA1 = rTRPA1 (Rattus norvegicus, UniProt Q6RI86); assay: Whole-cell patch clamp inhibition of rTRPA1; format: cell-based; conditions: rTRPA1, 10 micromolar AITC activation; read-out: IC50 Inward current
Procedure: (§1) Data for TRPA1 inhibition and the selectivity of TRPA1 inhibition was obtained by this method for the compound of Formula (Ia) and included in Table 1 and Table 2. All currents were recorded in whole-cell configuration using EPC-9 and EPC-10 amplifiers and Patchmaster software (HEKA). […] The standard pipette solution consisted of 140 mM CsAsp, 10 mM EGTA, 10 mM HEPES, 2.27 mM MgCl2, 1.91 mM CaCl2, 4 mM MgATP, and 0.1-0.3 mM Na2GTP, with pH adjusted to 7.2 with CsOH. In addition, a solution containing 145 mM CsCl, 10 mM HEPES, 10 mM EGTA and 1 mM MgCl2 (pH 7.2 adjusted with CsOH) can be used. The standard bath solution contained 150 mM NaCl, 10 mM HEPES, 10 mM glucose, 4.5 mM KCl, 1 mM EGTA, 3 mM MgCl2, with pH adjusted to 7.4 with NaOH. In some instances, 2 mM CaCl2 was added in place of EGTA and the concentration of MgCl2 was reduced to 1 mM.
(§2) Data were collected either by continuous recordings at −60 mV or by applying voltage ramps from a holding potential of 0 mV every 4 s. […] Inward and outward currents were analyzed from the ramps at −80 and 80 mV, respectively. […]
(§3) Solutions were switched using a gravity-fed continuous focal perfusion system. […] Temperatures were confirmed using a thermistor (Warner Instruments, TA-29), with temperatures at the recorded cell estimated to be within +/−2° C. of those reported. […]

dTRPA1 = dTRPA1 (Canis lupus familiaris, UniProt A0A8I3Q1Q7); assay: Whole-cell patch clamp inhibition of dTRPA1; format: cell-based, Dog; conditions: dTRPA1, 10 micromolar AITC activation; read-out: IC50 Inward current
Procedure: as §1, §2, §3

hTRPV1 = hTRPV1 (Homo sapiens, UniProt Q8NER1); assay: Patch clamp selectivity, hTRPV1; format: cell-based; conditions: hTRPV1 vs TRPA1
Procedure: as §1, §2, §3

hTRPV4 = hTRPV4 (Homo sapiens, UniProt Q9HBA0); assay: Patch clamp selectivity, hTRPV4 (block); format: cell-based; conditions: hTRPV4 vs TRPA1
Procedure: as §1, §2, §3

hTRPM8 = hTRPM8 (Homo sapiens, UniProt Q7Z2W7); assay: Patch clamp selectivity, hTRPM8; format: cell-based; conditions: hTRPM8 vs TRPA1
Procedure: as §1, §2, §3

hERG = hERG (Homo sapiens, UniProt Q12809); assay: Patch clamp selectivity, hERG; format: cell-based; conditions: hERG vs TRPA1
Procedure: as §1, §2, §3

hNav1.2 = hNav1.2 (Homo sapiens, UniProt Q99250); assay: Patch clamp selectivity, hNav1.2; format: cell-based; conditions: hNav1.2 vs TRPA1
Procedure: as §1, §2, §3

[1] = tested on: formalin-induced pain behavior; assay: Formalin-induced pain behavior in vivo rodent model; parameters: species or system rat; conditions: i.p. administration, in words
Text: The data shown in Tables 3a, 3b, and 3c and FIG. 2 were obtained by administering a pharmaceutical composition comprising the compound of Formula (Ia) to rodents in the formalin-induced pain duration at various doses according to Example 5. Specifically, the data in Tables 3a, 3b, and 3c and FIG. 2 were obtained by intraperitoneal (i.p.) administration of compositions containing different concentrations of the compound of Formula (Ia), a comparator composition containing recited amounts of the comparator compound (e.g., 150 mg/kg of the comparator compound of Formula (II) in Table 3a) and a control composition containing the vehicle (e.g., without the compound of Formula (Ia) or a comparator compound).
The compound of Formula (Ia) and the comparator compounds of Formula (II) and Formula (III) were tested in the formalin-induced pain test reported by Dubuisson et al., Pain 1977 December; 4(2):161-74 (incorporated herein by reference in its entirety). Dubuisson et al. (1977) describe a method for assessing pain and analgesia in rats and cats. Briefly, dilute formalin (50 μL of 3% formalin) is injected into the plantar surface of the hind paw. […] The individual responsible for counting the pain behaviors in a particular study is blinded to the treatment groups.
Rats were treated with the HCl salt of Compound (Ia) at various doses (3, 10, 30, and 50 mg/kg, IP) or with the vehicle (IP).

[2] = tested on: serum biomarkers of hepatotoxicity; assay: Hepatotoxicity serum biomarker study in dogs, oral dose; format: in vivo, dog; conditions: dogs, 50 mg/kg PO
Procedure: The compound of Formula (Ia) was orally dosed to […] at dose levels of 5, 15 or 50 mg/kg using 30% Sulfobutylether β-cyclodextrin as the vehicle for assessment of safety as measured via serum chemistry biomarkers of hepatotoxicity or bile duct injury FIG. 5A, showing measurements of alanine aminotranferease [ALT], aspartate aminotranferease [AST], alkaline phosphatase [ALP] and gamma-glutamyl transferase [GGT] in the dogs at each dose level (each bar represents a measurement from 1 dog in the study). […] For example, the ALT levels were elevated up to about 60-fold in male dogs and up to about 130-fold in female beagle dogs following a single PO dose of 50 mg/kg.

healthy male volunteers = assay: Single ascending dose Phase 1A study; format: in vivo, human; conditions: 6 ascending single doses, placebo-controlled
Text: A randomized, double-blind, placebo-controlled, cross-over, single dose, safety, tolerability and pharmacokinetic study of 6 ascending doses of the compound of Formula (Ia) was undertaken in two cohorts of healthy male volunteers. A total of eighteen eligible healthy mail volunteers were recruited utilizing an alternating panel design. The first cohort of nine subjects (Cohort 1) was sequentially enrolled into 3 of 6 dosing periods (Dose Levels 1, 3, and 5). The remaining cohort of nine subjects (Cohort 2) was enrolled in the other 3 dosing periods (Dose Levels 2, 4, and 6). Within each dosing period, subjects were randomly assigned 2:1 to the compound of Formula (I) (n=6) or placebo (n=3). Each subject received one dose of placebo and two different doses of the compound of Formula (I) over the course of their participation in all three dosing periods. Subjects were equally randomized to one of 3 possible sequences, namely 1) placebo, active, active, 2) active, placebo, active, and 3) active, active, placebo.

dTRPA1, sequence (A0A8I3Q1Q7 1-1118): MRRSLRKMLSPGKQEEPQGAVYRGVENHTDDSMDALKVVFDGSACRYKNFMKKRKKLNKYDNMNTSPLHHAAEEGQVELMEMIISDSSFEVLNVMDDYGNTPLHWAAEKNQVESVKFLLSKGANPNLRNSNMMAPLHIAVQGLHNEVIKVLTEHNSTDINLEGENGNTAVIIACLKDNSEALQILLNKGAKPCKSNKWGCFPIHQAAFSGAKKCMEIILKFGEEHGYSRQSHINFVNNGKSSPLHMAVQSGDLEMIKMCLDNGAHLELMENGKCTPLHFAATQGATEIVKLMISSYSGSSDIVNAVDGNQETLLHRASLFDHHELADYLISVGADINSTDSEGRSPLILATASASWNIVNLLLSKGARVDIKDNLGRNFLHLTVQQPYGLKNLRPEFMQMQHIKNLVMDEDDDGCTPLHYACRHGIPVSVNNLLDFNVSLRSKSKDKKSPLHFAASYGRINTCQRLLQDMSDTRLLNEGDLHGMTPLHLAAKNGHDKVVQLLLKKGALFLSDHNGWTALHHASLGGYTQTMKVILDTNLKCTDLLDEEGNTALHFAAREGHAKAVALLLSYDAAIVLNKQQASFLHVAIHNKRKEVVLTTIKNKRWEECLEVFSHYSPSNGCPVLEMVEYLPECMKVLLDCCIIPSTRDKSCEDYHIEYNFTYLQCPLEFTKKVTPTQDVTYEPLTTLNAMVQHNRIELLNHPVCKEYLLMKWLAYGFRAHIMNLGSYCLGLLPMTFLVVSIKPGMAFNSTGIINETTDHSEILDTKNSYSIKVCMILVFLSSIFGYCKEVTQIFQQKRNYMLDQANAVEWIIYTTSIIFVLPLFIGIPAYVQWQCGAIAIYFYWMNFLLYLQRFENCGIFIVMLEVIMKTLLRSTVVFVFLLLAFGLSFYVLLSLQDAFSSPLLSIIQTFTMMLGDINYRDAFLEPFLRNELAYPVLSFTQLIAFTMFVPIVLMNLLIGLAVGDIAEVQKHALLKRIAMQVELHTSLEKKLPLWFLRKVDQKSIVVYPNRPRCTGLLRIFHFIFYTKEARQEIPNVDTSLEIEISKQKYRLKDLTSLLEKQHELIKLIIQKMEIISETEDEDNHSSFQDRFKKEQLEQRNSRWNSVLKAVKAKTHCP
hTRPV4, sequence (Q9HBA0 whole entry): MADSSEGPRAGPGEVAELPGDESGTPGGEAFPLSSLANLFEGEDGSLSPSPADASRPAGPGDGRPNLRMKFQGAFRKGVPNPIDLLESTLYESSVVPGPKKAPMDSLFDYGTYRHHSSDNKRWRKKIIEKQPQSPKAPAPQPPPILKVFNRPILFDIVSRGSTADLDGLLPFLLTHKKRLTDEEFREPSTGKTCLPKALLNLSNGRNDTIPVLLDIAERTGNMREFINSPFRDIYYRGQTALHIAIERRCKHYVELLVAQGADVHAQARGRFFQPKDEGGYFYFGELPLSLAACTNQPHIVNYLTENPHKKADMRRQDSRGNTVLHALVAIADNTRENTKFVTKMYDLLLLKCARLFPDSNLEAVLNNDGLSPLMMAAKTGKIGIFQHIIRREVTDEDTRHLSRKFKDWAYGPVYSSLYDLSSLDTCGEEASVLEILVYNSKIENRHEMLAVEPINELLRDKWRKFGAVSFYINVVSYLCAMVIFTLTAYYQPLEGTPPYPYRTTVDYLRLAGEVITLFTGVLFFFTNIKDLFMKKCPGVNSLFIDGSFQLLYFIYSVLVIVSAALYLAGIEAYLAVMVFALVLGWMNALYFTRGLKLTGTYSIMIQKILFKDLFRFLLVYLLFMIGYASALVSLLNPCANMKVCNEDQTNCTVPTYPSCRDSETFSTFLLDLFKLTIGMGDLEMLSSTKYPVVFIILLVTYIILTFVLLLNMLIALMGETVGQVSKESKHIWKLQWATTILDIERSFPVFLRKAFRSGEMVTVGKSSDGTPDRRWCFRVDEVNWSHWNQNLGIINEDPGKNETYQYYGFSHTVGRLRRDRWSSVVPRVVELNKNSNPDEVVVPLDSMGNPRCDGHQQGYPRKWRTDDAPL
hTRPV1, sequence (Q8NER1 whole entry): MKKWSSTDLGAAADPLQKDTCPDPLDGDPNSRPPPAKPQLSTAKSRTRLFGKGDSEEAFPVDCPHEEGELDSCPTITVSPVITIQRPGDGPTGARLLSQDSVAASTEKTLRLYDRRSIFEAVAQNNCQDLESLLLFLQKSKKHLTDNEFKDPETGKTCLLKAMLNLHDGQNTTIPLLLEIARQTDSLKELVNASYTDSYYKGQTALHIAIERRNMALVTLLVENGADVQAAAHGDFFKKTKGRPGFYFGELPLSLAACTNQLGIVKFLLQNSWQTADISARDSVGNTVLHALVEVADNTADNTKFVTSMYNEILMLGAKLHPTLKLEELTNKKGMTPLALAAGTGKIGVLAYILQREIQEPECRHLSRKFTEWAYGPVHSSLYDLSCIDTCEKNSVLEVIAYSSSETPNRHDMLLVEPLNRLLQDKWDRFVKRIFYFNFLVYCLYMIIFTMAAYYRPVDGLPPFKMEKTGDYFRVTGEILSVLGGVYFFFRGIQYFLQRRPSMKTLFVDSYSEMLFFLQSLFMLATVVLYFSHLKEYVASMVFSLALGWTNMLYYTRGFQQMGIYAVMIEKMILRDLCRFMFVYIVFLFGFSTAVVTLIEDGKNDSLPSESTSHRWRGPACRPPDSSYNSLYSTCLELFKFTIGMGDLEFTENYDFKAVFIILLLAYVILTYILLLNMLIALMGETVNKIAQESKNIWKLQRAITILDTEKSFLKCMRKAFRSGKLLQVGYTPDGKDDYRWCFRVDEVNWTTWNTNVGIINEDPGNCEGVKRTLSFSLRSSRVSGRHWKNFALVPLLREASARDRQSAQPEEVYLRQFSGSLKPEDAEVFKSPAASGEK
rTRPA1, sequence (Q6RI86 whole entry): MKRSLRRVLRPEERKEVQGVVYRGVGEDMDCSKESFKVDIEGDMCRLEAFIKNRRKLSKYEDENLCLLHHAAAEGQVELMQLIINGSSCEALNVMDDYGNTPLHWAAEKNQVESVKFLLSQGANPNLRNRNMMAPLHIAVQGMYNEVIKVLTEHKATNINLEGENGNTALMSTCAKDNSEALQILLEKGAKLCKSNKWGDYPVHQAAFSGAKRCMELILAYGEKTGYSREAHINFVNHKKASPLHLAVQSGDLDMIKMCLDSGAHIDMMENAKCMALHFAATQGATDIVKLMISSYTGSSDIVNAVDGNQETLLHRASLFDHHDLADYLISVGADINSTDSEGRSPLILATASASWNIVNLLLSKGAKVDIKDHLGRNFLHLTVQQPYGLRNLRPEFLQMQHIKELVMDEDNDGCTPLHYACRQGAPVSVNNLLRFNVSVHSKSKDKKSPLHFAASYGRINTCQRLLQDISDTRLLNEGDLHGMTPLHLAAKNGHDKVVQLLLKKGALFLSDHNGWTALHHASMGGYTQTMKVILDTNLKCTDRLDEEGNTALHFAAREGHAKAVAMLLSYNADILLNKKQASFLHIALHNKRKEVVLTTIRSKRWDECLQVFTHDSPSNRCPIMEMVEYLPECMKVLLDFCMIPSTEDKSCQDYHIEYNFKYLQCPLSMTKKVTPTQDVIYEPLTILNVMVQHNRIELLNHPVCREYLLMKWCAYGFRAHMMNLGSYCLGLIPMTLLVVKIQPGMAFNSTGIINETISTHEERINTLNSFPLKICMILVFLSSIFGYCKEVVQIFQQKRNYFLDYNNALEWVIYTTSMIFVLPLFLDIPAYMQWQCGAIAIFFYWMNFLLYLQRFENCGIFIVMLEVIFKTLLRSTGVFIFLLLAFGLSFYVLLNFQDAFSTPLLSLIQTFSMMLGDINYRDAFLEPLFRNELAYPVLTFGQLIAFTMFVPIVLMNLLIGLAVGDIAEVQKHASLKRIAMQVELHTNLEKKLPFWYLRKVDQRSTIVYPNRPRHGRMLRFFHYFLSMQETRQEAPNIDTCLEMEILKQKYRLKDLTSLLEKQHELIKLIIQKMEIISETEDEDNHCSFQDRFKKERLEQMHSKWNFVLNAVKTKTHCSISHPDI
hERG, sequence (Q12809 whole entry): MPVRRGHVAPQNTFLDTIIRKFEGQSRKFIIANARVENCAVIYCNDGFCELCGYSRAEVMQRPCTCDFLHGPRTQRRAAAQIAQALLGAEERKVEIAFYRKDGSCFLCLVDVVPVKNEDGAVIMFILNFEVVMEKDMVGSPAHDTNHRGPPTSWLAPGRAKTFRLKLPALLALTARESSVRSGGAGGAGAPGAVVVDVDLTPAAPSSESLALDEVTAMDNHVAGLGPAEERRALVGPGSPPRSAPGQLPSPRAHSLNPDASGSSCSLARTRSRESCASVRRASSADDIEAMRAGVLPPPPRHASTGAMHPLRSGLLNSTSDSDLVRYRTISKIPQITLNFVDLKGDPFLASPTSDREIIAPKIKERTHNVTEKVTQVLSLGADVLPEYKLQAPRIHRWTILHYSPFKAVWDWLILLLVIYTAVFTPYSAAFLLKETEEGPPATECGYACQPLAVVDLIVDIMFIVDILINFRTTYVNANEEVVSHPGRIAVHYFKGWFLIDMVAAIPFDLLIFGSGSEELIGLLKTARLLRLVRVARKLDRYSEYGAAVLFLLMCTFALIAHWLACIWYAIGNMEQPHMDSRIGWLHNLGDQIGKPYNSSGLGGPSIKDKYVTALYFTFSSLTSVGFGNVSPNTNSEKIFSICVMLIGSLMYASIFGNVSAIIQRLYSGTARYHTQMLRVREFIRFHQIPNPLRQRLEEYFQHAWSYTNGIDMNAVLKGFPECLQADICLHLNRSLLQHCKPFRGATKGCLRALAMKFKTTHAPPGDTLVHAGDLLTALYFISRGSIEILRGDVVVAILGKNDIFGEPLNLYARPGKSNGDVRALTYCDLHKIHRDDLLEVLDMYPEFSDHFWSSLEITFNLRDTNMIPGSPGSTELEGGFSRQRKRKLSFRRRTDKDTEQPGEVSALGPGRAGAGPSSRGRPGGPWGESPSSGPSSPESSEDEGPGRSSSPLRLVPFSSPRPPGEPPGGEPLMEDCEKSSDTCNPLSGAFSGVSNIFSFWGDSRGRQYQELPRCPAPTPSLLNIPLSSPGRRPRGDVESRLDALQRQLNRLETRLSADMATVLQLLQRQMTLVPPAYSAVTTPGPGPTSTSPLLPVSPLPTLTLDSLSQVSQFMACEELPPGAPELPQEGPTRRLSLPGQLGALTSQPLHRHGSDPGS

IC50 (rTRPA1): ~100 nM | IC50 (dTRPA1): ~100 nM | Fold Selectivity Compared to TRPA1 (hTRPV1): >100 Fold | Fold Selectivity Compared to TRPA1 (hTRPV4): ~170 Fold | Fold Selectivity Compared to TRPA1 (hTRPM8): ~200 Fold | Fold Selectivity Compared to TRPA1 (hNav1.2): >100 Fold
Compound: C[C@H]1CCCN1c1ncc(-c2cccc(NC(=O)Cn3cnc4c3c(=O)n(C)c(=O)n4C)n2)cn1 [Formula (Ia)]
Fold Selectivity Compared to TRPA1 (hERG): >100 Fold | duration of pain behavior compared with vehicle [1]: shorter durations of pain behavior than those treated with the vehicle | serum biomarkers of hepatotoxicity (ALT, AST, ALP, GGT) [2]: did not elevate serum biomarkers of hepatotoxicity or acute phase response | safety signals (healthy male volunteers): no safety signals seen that were attributable to the compound
